Reference: ChEMBL document CHEMBL3808272, “Discovery of (S)-4-isobutyloxazolidin-2-one as a novel leucyl-tRNA synthetase (LRS)-targeted mTORC1 inhibitor” (Bioorg Med Chem Lett, 2016)
Activity calls are given as the source filed them. The calls are words filed in the database; no cut-off is given here.

How the values were obtained:
[1] = target: Leucine--tRNA ligase, cytoplasmic (Homo sapiens) (UniProt Q9P2J5); test: Inhibition of leucyl-tRNA synthetase (unknown origin) expressed in HEK293 cells assessed as inhibition of leucine-induced mTORC1-mediated S6 kinase phosphorylation pre-treated at 1 mM followed by leucine stimulation for 10 mins by immunoblotting analysis; assay type: cell-based
Leucine--tRNA ligase, cytoplasmic (Homo sapiens), sequence (Q9P2J5 whole entry, looked up): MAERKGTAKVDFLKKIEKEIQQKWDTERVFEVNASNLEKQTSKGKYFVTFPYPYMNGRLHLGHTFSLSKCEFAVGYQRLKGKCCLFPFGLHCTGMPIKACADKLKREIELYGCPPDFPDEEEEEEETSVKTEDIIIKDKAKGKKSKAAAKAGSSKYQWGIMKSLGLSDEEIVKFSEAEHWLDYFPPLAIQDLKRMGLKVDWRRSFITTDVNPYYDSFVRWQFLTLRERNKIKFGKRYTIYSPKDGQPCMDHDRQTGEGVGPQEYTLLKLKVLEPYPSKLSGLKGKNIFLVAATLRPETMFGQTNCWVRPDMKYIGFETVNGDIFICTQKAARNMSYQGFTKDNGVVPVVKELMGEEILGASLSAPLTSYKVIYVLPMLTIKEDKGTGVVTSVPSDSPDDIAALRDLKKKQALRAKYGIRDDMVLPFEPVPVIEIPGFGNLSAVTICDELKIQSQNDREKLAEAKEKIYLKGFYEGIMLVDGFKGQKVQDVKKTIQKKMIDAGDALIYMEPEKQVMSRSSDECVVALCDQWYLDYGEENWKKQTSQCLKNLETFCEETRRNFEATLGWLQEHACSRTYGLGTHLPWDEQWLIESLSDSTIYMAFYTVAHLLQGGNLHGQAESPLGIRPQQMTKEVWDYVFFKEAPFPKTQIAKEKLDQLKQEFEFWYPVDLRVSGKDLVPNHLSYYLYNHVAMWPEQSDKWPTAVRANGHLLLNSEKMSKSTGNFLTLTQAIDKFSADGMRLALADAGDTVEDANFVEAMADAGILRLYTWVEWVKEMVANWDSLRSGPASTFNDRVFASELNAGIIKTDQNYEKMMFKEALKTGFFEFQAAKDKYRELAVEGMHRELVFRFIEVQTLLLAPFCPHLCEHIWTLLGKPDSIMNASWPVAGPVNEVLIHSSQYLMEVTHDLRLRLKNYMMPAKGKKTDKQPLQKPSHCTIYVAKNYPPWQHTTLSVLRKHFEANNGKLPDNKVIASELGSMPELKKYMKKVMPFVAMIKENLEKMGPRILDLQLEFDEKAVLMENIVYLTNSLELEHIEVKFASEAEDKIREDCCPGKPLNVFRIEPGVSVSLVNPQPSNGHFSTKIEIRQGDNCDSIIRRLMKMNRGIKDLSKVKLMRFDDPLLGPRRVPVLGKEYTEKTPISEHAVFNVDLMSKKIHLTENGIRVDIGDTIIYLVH

HEK293 [2] = test: Inhibition of mTORC2 (unknown origin) expressed in HEK293 cells assessed as inhibition of leucine-induced Akt S473 phosphorylation pre-treated at 100 nM to 800 uM followed by leucine stimulation for 10 mins by immunoblotting analysis; assay type: cell-based; details: Homo sapiens
[3] = target: Leucine--tRNA ligase, cytoplasmic (Homo sapiens) (UniProt Q9P2J5); test: Inhibition of leucyl-tRNA synthetase (unknown origin) expressed in HEK293 cells assessed as inhibition of leucine-induced mTORC1-mediated S6 kinase phosphorylation pre-treated with compound followed by leucine stimulation for 10 mins by immunoblotting analysis; assay type: cell-based
HEK293 [4] = test: Effect on cellular Akt level in HEK293 cells pre-treated at 100 nM to 800 uM followed by leucine stimulation for 10 mins by immunoblotting analysis; assay type: cell-based; details: human
[5] = target: Leucine--tRNA ligase, cytoplasmic (Homo sapiens) (UniProt Q9P2J5); test: Inhibition of leucyl-tRNA synthetase (unknown origin) catalytic activity assessed as aminoleucylation
SW-620 [6] = test: Cytotoxicity against rapamycin resistant human SW620 cells by CellTox green fluorescent dye based assay; assay type: functional, cell-based
SW-620 [7] = test: Cytotoxicity against rapamycin resistant human SW620 cells at 400 uM to 4 mM by CellTox green fluorescent dye based assay; assay type: functional, cell-based
HEK293 [8] = test: Effect on cellular Akt level in HEK293 cells pre-treated at 800 uM followed by leucine stimulation for 10 mins by immunoblotting analysis; assay type: ADME, cell-based; details: human, hek293, 800 µM
[9] = target: Leucine--tRNA ligase, cytoplasmic (Homo sapiens) (UniProt Q9P2J5); test: Inhibition of leucyl-tRNA synthetase (unknown origin) expressed in HEK293 cells assessed as inhibition of leucine-induced mTORC1-mediated S6 kinase phosphorylation pre-treated at 800 uM followed by leucine stimulation for 10 mins by immunoblotting analysis; assay type: cell-based
HEK293 [10] = test: Inhibition of mTORC2 (unknown origin) expressed in HEK293 cells assessed as inhibition of leucine-induced Akt S473 phosphorylation pre-treated at 800 uM followed by leucine stimulation for 10 mins by immunoblotting analysis; assay type: cell-based; details: Homo sapiens
SW-620 [11] = test: Cytotoxicity against rapamycin resistant human SW620 cells at 1 uM by CellTox green fluorescent dye based assay; assay type: functional, cell-based
HEK293 [12] = test: Inhibition of mTORC2 (unknown origin) expressed in HEK293 cells assessed as inhibition of leucine-induced Akt S473 phosphorylation pre-treated at 100 nM followed by leucine stimulation for 10 mins by immunoblotting analysis; assay type: cell-based; details: Homo sapiens
[13] = target: Leucine--tRNA ligase, cytoplasmic (Homo sapiens) (UniProt Q9P2J5); test: Inhibition of leucyl-tRNA synthetase (unknown origin) expressed in HEK293 cells assessed as inhibition of leucine-induced mTORC1-mediated S6 kinase phosphorylation pre-treated at 100 nM followed by leucine stimulation for 10 mins by immunoblotting analysis; assay type: cell-based
HEK293 [14] = test: Effect on cellular Akt level in HEK293 cells pre-treated at 100 nM followed by leucine stimulation for 10 mins by immunoblotting analysis; assay type: ADME, cell-based; details: human, hek293, 0.1 µM

Q: With CC(C)C[C@H](N)CN as the molecule, how does the inhibition [1] read?
A: The inhibition was “inactive”.

Q: CC(C)C[C@H](N)CCO was tested. Which inhibition [1] did it give?
A: Its inhibition is “inactive”.

Q: CC(C)Cc1ncc[nH]1 was tested. Which inhibition (HEK293 [2]) did it give?
A: Its inhibition is “inactive”.

Q: What about the inhibition [1] of the same molecule?
A: Its inhibition is “Active”.

Q: What about the inhibition [3] of the same molecule?
A: Its inhibition is “Dose-dependent effect”.

Q: What about the Activity (HEK293 [4]) of the same molecule?
A: Its Activity is “Non-toxic”.

Q: What about the inhibition [5] of the same molecule?
A: The inhibition was “inactive”.

Q: For CC(C)C[C@H](N)CNO, which inhibition (HEK293 [2]) is on record?
A: The inhibition was “inactive”.

Q: And the inhibition [1]?
A: Its inhibition is “Active”.

Q: What about the inhibition [3] of the same molecule?
A: The inhibition was “Dose-dependent effect”.

Q: And the Activity (HEK293 [4])?
A: The Activity was “Non-toxic”.

Q: How did the inhibition [1] turn out when COC[C@@H](N)CC(C)C was run?
A: Its inhibition is “inactive”.

Q: How did the inhibition [1] turn out when CC(=O)NC[C@@H](N)CC(C)C was run?
A: The inhibition was “inactive”.

Q: How did the inhibition (HEK293 [2]) turn out when CC(C)C[C@H]1CNC(=O)N1 was run?
A: Its inhibition is “inactive”.

Q: What about the inhibition [1] of the same molecule?
A: Its inhibition is “Active”.

Q: What about the inhibition [3] of the same molecule?
A: Its inhibition is “Dose-dependent effect”.

Q: What about the Activity (HEK293 [4]) of the same molecule?
A: The Activity was “Non-toxic”.

Q: What about the inhibition [5] of the same molecule?
A: The inhibition was “inactive”.

Q: And the Activity (SW-620 [6])?
A: Its Activity is “Dose-dependent effect”.

Q: CC(C)C[C@H]1COC(=O)N1 was tested. Which inhibition (HEK293 [2]) did it give?
A: Its inhibition is “inactive”.

Q: What about the inhibition [1] of the same molecule?
A: Its inhibition is “Active”.

Q: What about the inhibition [3] of the same molecule?
A: Its inhibition is “Dose-dependent effect”.

Q: And the Activity (HEK293 [4])?
A: Its Activity is “Non-toxic”.

Q: How did the Activity (SW-620 [7]) turn out when CC(C)C[C@H](N)CO was run?
A: Its Activity is “Active”.

Q: What about the Activity (HEK293 [8]) of the same molecule?
A: Its Activity is “Non-toxic”.

Q: And the inhibition [1]?
A: The inhibition was “Active”.

Q: What about the inhibition [9] of the same molecule?
A: The inhibition was “Active”.

Q: What about the inhibition (HEK293 [10]) of the same molecule?
A: The inhibition was “inactive”.

Q: CC(C)C[C@H](N)[C@H](C)O was tested. Which inhibition [1] did it give?
A: The inhibition was “inactive”.

Q: For CC(C)C[C@H](N)/C=N/O, which inhibition [1] is on record?
A: Its inhibition is “inactive”.

Q: Which inhibition [1] does the source give for CC(C)C[C@H](N)[C@@H](C)O here?
A: The inhibition was “inactive”.

Q: How did the inhibition [1] turn out when CC(C)C[C@H](N)CCN was run?
A: Its inhibition is “inactive”.

Q: How did the Activity (SW-620 [11]) turn out when CO[C@H]1C[C@@H]2CC[C@@H](C)[C@@](O)(O2)C(=O)C(=O)N2CCCC[C@H]2C(=O)O[C@H]([C@H](C)C[C@@H]2CC[C@@H](O)[C@H](OC)C2)CC(=O)[C@H](C)/C=C(\C)[C@@H](O)[C@@H](OC)C(=O)[C@H](C)C[C@H](C)/C=C/C=C/C=C/1C [SIROLIMUS] was run?
A: The Activity was “inactive”.

Q: And the inhibition (HEK293 [12])?
A: The inhibition was “inactive”.

Q: What about the inhibition [13] of the same molecule?
A: Its inhibition is “Active”.

Q: What about the Activity (HEK293 [14]) of the same molecule?
A: The Activity was “Non-toxic”.

Q: With CC(C)C[C@H](N)CNS(C)(=O)=O as the molecule, how does the inhibition [1] read?
A: Its inhibition is “inactive”.

Q: How did the inhibition [1] turn out when CC(C)C[C@H](N)COS(C)(=O)=O was run?
A: Its inhibition is “inactive”.
